The record followed here is PubChem BioAssay AID242 (DTP/NCI, 2004).

The assay deals with BDF1 mice, Lymphoma 8 ip, survival T/C. In words: NCI In Vivo Anticancer Drug Screen. Data for tumor model Lymphoma 8 (intraperitoneal) in B6D2F1 (BDF1) mice. Particulars: endpoint: survival time, mean or median, higher = longer survival. Here is the method:
The antitumor activity of compounds was measured in mice bearing transplantable tumors. Survival or tumor size were measured and the results are expressed as the measurement made in the treated group (T) divided by the measurement made in the vehicle treated control group (C). The tumor model used in this assay is Lymphoma 8 (intraperitoneal) in B6D2F1 (BDF1) mice

Setting [1] is: dose: 50.0 mg/kg/injection, schedule: Q01DX015 (ip), vehicle: carboxymethylcellulose (CMC).
Where [2] appears, read: dose: 200.0 mg/kg/injection, schedule: Q01DX015 (ip), vehicle: carboxymethylcellulose (CMC).
The mark [3] stands for this setting: dose: 62.5 mg/kg/injection, schedule: Q01DX010 (ip), vehicle: saline.
Setting [4] is: dose: 125.0 mg/kg/injection, schedule: Q01DX010 (ip), vehicle: saline.
[5] abbreviates: dose: 250.0 mg/kg/injection, schedule: Q01DX010 (ip), vehicle: saline.
The mark [6] stands for this setting: dose: 12.5 mg/kg/injection, schedule: Q01DX015 (ip), vehicle: carboxymethylcellulose (CMC).
Where [7] appears, read: dose: 3.13 mg/kg/injection, schedule: Q01DX010 (ip), vehicle: saline.
Where [8] appears, read: dose: 6.25 mg/kg/injection, schedule: Q01DX010 (ip), vehicle: saline.
The mark [9] stands for this setting: dose: 12.5 mg/kg/injection, schedule: Q01DX010 (ip), vehicle: saline.
The mark [10] stands for this setting: dose: 2.0 mg/kg/injection, schedule: Q01DX010 (ip), vehicle: saline.
Setting [11] is: dose: 4.0 mg/kg/injection, schedule: Q01DX010 (ip), vehicle: saline.
The mark [12] stands for this setting: dose: 8.0 mg/kg/injection, schedule: Q01DX010 (ip), vehicle: saline.
[13] abbreviates: dose: 5.0 mg/kg/injection, schedule: Q01DX010 (ip), vehicle: saline.
[14] abbreviates: dose: 10.0 mg/kg/injection, schedule: Q01DX010 (ip), vehicle: saline.
Where [15] appears, read: dose: 20.0 mg/kg/injection, schedule: Q01DX010 (ip), vehicle: saline.
The mark [16] stands for this setting: dose: 0.5 mg/kg/injection, schedule: Q01DX010 (ip), vehicle: saline.
The mark [17] stands for this setting: dose: 1.0 mg/kg/injection, schedule: Q01DX010 (ip), vehicle: saline.
Setting [18] is: dose: 40.0 mg/kg/injection, schedule: Q01DX010 (ip), vehicle: saline.
Where [19] appears, read: dose: 25.0 mg/kg/injection, schedule: Q01DX010 (ip), vehicle: saline.
The mark [20] stands for this setting: dose: 31.3 mg/kg/injection, schedule: Q01DX010 (ip), vehicle: saline.
Setting [21] is: dose: 200.0 mg/kg/injection, schedule: Q01DX008 (ip), vehicle: saline.
Where [22] appears, read: dose: 25.0 mg/kg/injection, schedule: Q01DX015 (ip), vehicle: carboxymethylcellulose (CMC).
Where [23] appears, read: dose: 100.0 mg/kg/injection, schedule: Q01DX015 (ip), vehicle: carboxymethylcellulose (CMC).

Several values for one entry are separate records, joined by “and”; a condition that tells them apart may be missing. Equal entries are not always repeated. Toxic doses and inconclusive results are not listed.

Turning to `Cc1cc2nc3c(=O)[nH]c(=O)nc-3n(CC(O)C(O)C(O)C(O)CO)c2cc1C` (stereo not drawn), the T/C was 90 % of control under setting [1] and 87 % of control under setting [2].

As to `Nc1nc2n[nH]nc2c(=O)[nH]1`, the T/C was 108 % of control (dose: 25.0 mg/kg/injection, schedule: Q01DX010 (ip), vehicle: alkali diluted with saline); 104 % of control and 112 % of control (dose: 50.0 mg/kg/injection, schedule: Q01DX010 (ip), vehicle: alkali diluted with saline); 112 % of control and 116 % of control (dose: 100.0 mg/kg/injection, schedule: Q01DX010 (ip), vehicle: alkali diluted with saline); 116 % of control (dose: 200.0 mg/kg/injection, schedule: Q01DX010 (ip), vehicle: alkali diluted with saline).

In the case of `OCC1OC(n2cnc3c(Cl)ncnc32)C(O)C1O` (stereo not drawn), the T/C by setting is: under setting [3], 90 % of control and 105 % of control; under setting [4], 95 % of control and 100 % of control and 105 % of control; under setting [5], 90 % of control and 95 % of control and 105 % of control; (dose: 500.0 mg/kg/injection, schedule: Q01DX010 (ip), vehicle: saline) 97 % of control and 104 % of control and 115 % of control.

In the case of `O=C(O)c1[nH]c(=O)[nH]c(=O)c1F`, the T/C is, setting by setting: (dose: 12.0 mg/kg/injection, schedule: Q01DX015 (ip), vehicle: carboxymethylcellulose (CMC)) 99 % of control; under setting [6], 98 % of control.

For `O=C(O)CCCc1ccc(N(CCCl)CCCl)cc1`, the T/C by setting is: under setting [7], 100 % of control and 104 % of control; under setting [8], 104 % of control and 116 % of control; under setting [9], 104 % of control.

On to `CC(CCC(C)OS(C)(=O)=O)OS(C)(=O)=O` (stereo not drawn), for which the T/C is 92 % of control and 100 % of control under setting [10]; 103 % of control and 104 % of control under setting [11]; 103 % of control and 104 % of control under setting [12]; 100 % of control and 116 % of control (dose: 16.0 mg/kg/injection, schedule: Q01DX010 (ip), vehicle: saline).

In the case of `Cc1cc(N(CCCl)CCCl)ccc1N=Nc1ccccc1C(=O)O`, the T/C reads like this: under setting [13], 91 % of control and 107 % of control; under setting [14], 108 % of control and 110 % of control; under setting [15], 108 % of control.

On to `C1CN1c1nc(N2CC2)nc(N2CC2)n1`, for which the T/C was 91 % of control and 100 % of control (dose: 0.13 mg/kg/injection, schedule: Q01DX010 (ip), vehicle: saline); 100 % of control and 104 % of control (dose: 0.25 mg/kg/injection, schedule: Q01DX010 (ip), vehicle: saline); 166 % of control under setting [16]; 87 % of control under setting [17].

As to `COc1cc(-c2ccc(Nc3ccccc3C(=O)O)c(OC)c2)ccc1N`, the T/C is 92 % of control and 100 % of control under setting [15]; 100 % of control under setting [18]; 92 % of control and 120 % of control (dose: 80.0 mg/kg/injection, schedule: Q01DX010 (ip), vehicle: saline).

Take `O=NN(CCCl)C(=O)NCCCl`: the T/C (dose: 2.64 mg/kg/injection, schedule: Q01DX015 (ip), vehicle: saline) was 90 % of control.

For the molecule `NC(Cc1c[nH]c2ccc(N(CCCl)CCCl)cc12)C(=O)O` (stereo not drawn), the T/C is 92 % of control under setting [16], 103 % of control under setting [17] and 103 % of control under setting [11].

For `Nc1nc(F)nc2c1ncn2C1OC(CO)C(O)C1O` (stereo not drawn), the T/C (dose: 0.75 mg/kg/injection, schedule: Q01DX015 (ip), vehicle: saline) is 88 % of control.

On to `N=[N+]=CC(=O)OCC(N)C(=O)O` (stereo not drawn), for which the T/C runs as follows: under setting [7], 116 % of control; under setting [9], 150 % of control; under setting [19], 87 % of control and 91 % of control.

With `CCN(CCNc1ccc(C)c2sc3cc(Cl)ccc3c(=O)c12)CC(C)O` (stereo not drawn), the T/C (dose: 7.8 mg/kg/injection, schedule: Q01DX010 (ip), vehicle: saline) is 100 % of control; the T/C (dose: 15.6 mg/kg/injection, schedule: Q01DX010 (ip), vehicle: saline) was 100 % of control; the T/C under setting [20] was 96 % of control.

As to `CCCCOP(=S)(N1CC1)N1CC1`, the T/C is 100 % of control under setting [16], 103 % of control under setting [17], 106 % of control under setting [10] and 103 % of control under setting [11].

With `N[C@@H](Cc1ccc(N(CCCl)CCCl)cc1)C(=O)O`, the T/C (dose: 4.0 mg/kg/injection, schedule: Q01DX015 (ip), vehicle: carboxymethylcellulose (CMC)) is 91 % of control.

`O=c1cnn(C2OC(CO)C(O)C2O)c(=O)[nH]1` (stereo not drawn): the T/C was 115 % of control under setting [21] and 96 % of control (dose: 800.0 mg/kg/injection, schedule: Q01DX008 (ip), vehicle: saline).

As to `Nc1nc(=S)c2ncn(C3OC(CO)C(O)C3O)c2[nH]1` (stereo not drawn), the T/C reads like this: under setting [11], 92 % of control; under setting [12], 89 % of control.

For the molecule `Cn1c(O)c(N=NC(N)=S)c2ccccc21`, the T/C (dose: 1.5 mg/kg/injection, schedule: Q01DX015 (ip), vehicle: carboxymethylcellulose (CMC)) was 100 % of control; the T/C (dose: 3.0 mg/kg/injection, schedule: Q01DX015 (ip), vehicle: carboxymethylcellulose (CMC)) was 98 % of control; the T/C (dose: 6.0 mg/kg/injection, schedule: Q01DX015 (ip), vehicle: carboxymethylcellulose (CMC)) is 99 % of control; the T/C under setting [6] was 95 % of control; the T/C under setting [22] was 97 % of control; the T/C under setting [1] is 124 % of control. Also, the T/C under setting [23] was 117 % of control and the T/C under setting [2] was 115 % of control.

Regarding `N#[N+]c1cnc([O-])[nH]c1=O`, the T/C was 107 % of control (dose: 1.25 mg/kg/injection, schedule: Q01DX010 (ip), vehicle: saline); 103 % of control (dose: 2.5 mg/kg/injection, schedule: Q01DX010 (ip), vehicle: saline); 121 % of control under setting [13]; 121 % of control under setting [14].

On to `C[C@@H]1C[C@H]2CC[C@H](O2)[C@H](C)C(=O)O[C@@H](C)C[C@@H]2CC[C@@H](O2)[C@@H](C)C(=O)O[C@H](C)C[C@H]2CC[C@H](O2)[C@H](C)C(=O)O[C@@H](C)C[C@@H]2CC[C@@H](O2)[C@@H](C)C(=O)O1`, for which the T/C is 102 % of control (dose: 45.0 mg/kg/injection, schedule: Q01DX015 (ip), vehicle: other); 94 % of control (dose: 90.0 mg/kg/injection, schedule: Q01DX015 (ip), vehicle: other); 88 % of control (dose: 360.0 mg/kg/injection, schedule: Q01DX015 (ip), vehicle: other).

With `CCCSc1ncnc2nc[nH]c12`, the T/C under setting [20] was 100 % of control and 113 % of control; the T/C under setting [3] was 95 % of control and 100 % of control; the T/C under setting [4] is 95 % of control and 104 % of control; the T/C under setting [5] is 86 % of control.

`C[C@H]1C(=O)O[C@@H]2CCN3CC=C(COC(=O)[C@](C)(O)[C@@]1(C)O)[C@H]23`: the T/C is 116 % of control under setting [7], 100 % of control under setting [8], 104 % of control under setting [9] and 104 % of control under setting [19].

As to `COc1ccccc1CNCCO`, the T/C by setting is: (dose: 50.0 mg/kg/injection, schedule: Q01DX010 (ip), vehicle: saline) 103 % of control; (dose: 100.0 mg/kg/injection, schedule: Q01DX010 (ip), vehicle: saline) 103 % of control; (dose: 200.0 mg/kg/injection, schedule: Q01DX010 (ip), vehicle: saline) 93 % of control.

In the case of `C[C@@H]1C[C@@H]([C@H](O)CC2CC(=O)NC(=O)C2)C(=O)[C@@H](C)C1`, the T/C runs as follows: under setting [13], 115 % of control; under setting [14], 105 % of control; under setting [15], 115 % of control; under setting [18], 120 % of control.

For `CN(C)C(=S)N=Nc1c(O)[nH]c2ccccc12`, the T/C reads like this: under setting [22], 124 % of control; under setting [23], 104 % of control.

Consider `NC(=O)/C=C/NC(=O)/C=N\O`, for which the T/C (dose: 50.0 mg/kg/injection, schedule: Q01DX008 (ip), vehicle: saline) is 92 % of control and the T/C under setting [21] was 88 % of control.
